According to US6440389B1, “Fluorescent agents for real-time measurement of organ function” (The General Hospital Corporation, priority 2000, dated 2002):

Assay: Fluorometric analysis, excitation and emission spectra
Format: physicochemical
Conditions: FIG. 4
Procedure: For the synthesis of a nile blue-DTPA conjugate, 0.1 g of DTPA dianhydride (ccDPTA) was dissolved in 6 ml of dimethyl sulfoxide (DMSO) in a round bottom flask. Ninety mg of nile blue were dissolved in DMSO and 36 μL of triethyl amine were added, turning the solution purple. The nile blue solution was added drop wise to the solution of ccDTPA while stirring. The solution turned blue. Thirty-eight μL of […] (TEA) were added to the final mixture, turning the solution purple. After mixing, the mixture was heated to 60° C. and stirred for 2 hours. The reaction mixture was then loaded onto a silica gel column and eluted with acetone:ethylacetate. The fractions corresponding to the nile blue-DTPA conjugate were pooled and evaporated, yielding a magenta colored oil. The oil was rechromatographed on a second silica gel column using acetone as eluant. The nile blue-DTPA conjugated fractions were pooled and rotate-evaporated to give a magenta colored oil. […]
The only group of chelating agents known to produce highly soluble and stable lanthanide chelates are the polyamino polyacetic acid analogs. […] The simplest initial approach was to study the fluorescence characteristics of the chelate between Eu and other already commercially available polyaminopoly bis (2-aminoethyl ether) acetic acids. […]

emission fluorescence: 695 nm | maximal excitation: approximately 390 nm
Compound: CC[N+](CC)=c1ccc2nc3c(cc(N)c4ccccc43)oc-2c1 [nile blue]
